Laboratory results from ChEMBL document CHEMBL1134355 (J Med Chem, 2001).

Key:
[1] = biological target: T1, Steroid 17-alpha-hydroxylase/17,20 lyase (Homo sapiens, UniProt P05093)
T1 sequence (P05093 whole entry): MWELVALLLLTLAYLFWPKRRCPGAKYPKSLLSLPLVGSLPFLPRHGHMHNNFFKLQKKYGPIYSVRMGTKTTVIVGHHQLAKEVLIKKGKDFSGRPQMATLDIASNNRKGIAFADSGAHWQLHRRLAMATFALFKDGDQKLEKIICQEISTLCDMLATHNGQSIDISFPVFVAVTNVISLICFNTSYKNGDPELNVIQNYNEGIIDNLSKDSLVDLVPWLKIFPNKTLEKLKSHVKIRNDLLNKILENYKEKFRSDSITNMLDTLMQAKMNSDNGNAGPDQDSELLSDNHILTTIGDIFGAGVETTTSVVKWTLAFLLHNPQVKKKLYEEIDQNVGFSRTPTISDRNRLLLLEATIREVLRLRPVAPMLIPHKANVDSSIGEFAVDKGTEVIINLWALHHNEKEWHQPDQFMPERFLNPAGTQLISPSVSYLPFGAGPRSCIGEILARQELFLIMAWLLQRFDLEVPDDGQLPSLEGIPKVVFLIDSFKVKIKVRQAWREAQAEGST

Aromatase = biological target: T2, Aromatase (Homo sapiens, UniProt P11511)
T2 sequence (P11511 whole entry): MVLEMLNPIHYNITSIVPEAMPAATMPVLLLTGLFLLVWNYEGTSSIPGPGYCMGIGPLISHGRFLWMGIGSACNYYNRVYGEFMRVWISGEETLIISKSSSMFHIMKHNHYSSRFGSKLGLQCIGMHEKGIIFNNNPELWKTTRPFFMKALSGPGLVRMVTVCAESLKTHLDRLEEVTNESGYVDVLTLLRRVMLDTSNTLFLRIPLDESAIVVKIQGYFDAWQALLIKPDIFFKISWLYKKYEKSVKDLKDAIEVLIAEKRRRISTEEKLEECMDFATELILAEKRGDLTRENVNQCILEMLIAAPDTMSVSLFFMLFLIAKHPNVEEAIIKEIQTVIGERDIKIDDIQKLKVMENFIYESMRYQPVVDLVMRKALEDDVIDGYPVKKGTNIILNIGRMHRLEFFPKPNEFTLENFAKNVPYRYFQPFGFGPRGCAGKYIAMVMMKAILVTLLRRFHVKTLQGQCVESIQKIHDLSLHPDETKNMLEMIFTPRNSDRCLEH

[2] = biological target: T1, Steroid 17-alpha-hydroxylase/17,20 lyase; remark: listed apart in the source

Question: `O=c1ccoc2cc(Cn3cnnc3)ccc12` was tested. Which inhibition at 2.5 µM [1] did it give?
Answer: Its inhibition at 2.5 µM is 5%.

Question: `COc1ccc2c(=O)c(Cn3cnnc3)c(-c3ccccc3)oc2c1` was tested. Which inhibition at 25 µM (Aromatase) did it give?
Answer: Its inhibition at 25 µM is 21%.

Question: And the inhibition at 2.5 µM [1]?
Answer: The inhibition at 2.5 µM was 14%.

Question: Which inhibition at 2.5 µM [1] does the source give for `COc1ccc2c(=O)c(Cn3ccnc3)c(-c3ccccc3)oc2c1` here?
Answer: Its inhibition at 2.5 µM is 44%.

Question: With `O=c1ccoc2cc(Cn3ccnc3)ccc12` as the molecule, how does the inhibition at 2.5 µM [1] read?
Answer: Its inhibition at 2.5 µM is 9%.

Question: What does the source list for `O=c1c2ccccc2oc2c(Cn3ccnc3)ccc([N+](=O)[O-])c12`?
Answer: inhibition at 2.5 µM [1]: 4%; Km (Homo sapiens): 0.0651 µM

Question: How did the inhibition at 2.5 µM [1] turn out when `N#Cc1ccc(Cn2ccnc2)c2occc(=O)c12` was run?
Answer: The inhibition at 2.5 µM was 3%.

Question: How did the inhibition at 2.5 µM [1] turn out when `O=c1ccoc2c(Cn3ccnc3)ccc(Br)c12` was run?
Answer: Its inhibition at 2.5 µM is 26%.

Question: For `O=c1c2ccccc2oc2c([N+](=O)[O-])ccc(Cn3ccnc3)c12`, which IC50 [2] is on record?
Answer: The IC50 was 130 nM.

Question: And the inhibition at 2.5 µM [1]?
Answer: The inhibition at 2.5 µM was 94%.

Question: For `O=c1c2ccccc2oc2cc(Cn3ccnc3)ccc12`, which inhibition at 2.5 µM [1] is on record?
Answer: The inhibition at 2.5 µM was 33%.

Question: For `O=c1ccoc2c(Cn3ccnc3)ccc([N+](=O)[O-])c12`, which inhibition at 2.5 µM [1] is on record?
Answer: The inhibition at 2.5 µM was 5%.

Question: Which inhibition at 25 µM (Aromatase) does the source give for `O=c1c2ccccc2oc2cc(Cn3cnnc3)ccc12` here?
Answer: Its inhibition at 25 µM is 27%.

Question: What about the inhibition at 2.5 µM [1] of the same molecule?
Answer: The inhibition at 2.5 µM was 8%.

Question: For `N#Cc1ccc(Cn2ccnc2)c2oc3ccccc3c(=O)c12`, which inhibition at 2.5 µM [1] is on record?
Answer: Its inhibition at 2.5 µM is 14%.

Question: Which inhibition at 2.5 µM [1] does the source give for `O=c1c2ccccc2oc2c(Cn3ccnc3)ccc(Br)c12` here?
Answer: The inhibition at 2.5 µM was 38%.

Question: Which IC50 [2] does the source give for `N#Cc1ccc(Cn2ccnc2)c2c(=O)c3ccccc3oc12` here?
Answer: The IC50 was 220 nM.

Question: And the inhibition at 2.5 µM [1]?
Answer: The inhibition at 2.5 µM was 92%.

Question: For `O=c1c2ccccc2oc2c(Br)ccc(Cn3ccnc3)c12`, which IC50 [2] is on record?
Answer: Its IC50 is 42 nM.

Question: What about the inhibition at 2.5 µM [1] of the same molecule?
Answer: Its inhibition at 2.5 µM is 98%.
